Experimental data taken from ChEMBL document CHEMBL1949614, “Advent of Imidazo[1,2-a]pyridine-3-carboxamides with Potent Multi- and Extended Drug Resistant Antituberculosis Activity” (ACS Med Chem Lett, 2011).
Converted amounts (≈) assume the structure as drawn.

Legend:
Assay in all cases: microbe, parasite or virus in culture
[1] = test system: Mycobacterium tuberculosis; conditions: variant bovis BCG
[2] = test system: Mycobacterium tuberculosis
[3] = test system: Mycobacterium tuberculosis; remark: listed apart in the source
[4] = test system: Mycobacterium tuberculosis; remark: listed apart in the source
[5] = test system: Mycobacterium tuberculosis; remark: listed apart in the source

SMILES	MIC90 [1] [µM]	MIC90 [2] [µM]	MIC90 [3] [µM]	MIC90 [4] [µM]	MIC90 [5] [µM]
Cc1ccn2c(C(=O)NCc3ccccc3)c(C)nc2c1	0.33 (≈ 0.0922 µg/mL)	1.02 (≈ 0.285 µg/mL)	0.28 (≈ 0.0782 µg/mL)	1.07 (≈ 0.299 µg/mL)	
NNC(=O)c1ccncc1 [ISONIAZID]					> 8
CO[C@H]1/C=C/O[C@@]2(C)Oc3c(C)c(O)c4c(O)c(c(/C=N/N5CCN(C)CC5)c(O)c4c3C2=O)NC(=O)/C(C)=C\C=C\[C@H](C)[C@H](O)[C@@H](C)[C@@H](O)[C@@H](C)[C@H](OC(C)=O)[C@@H]1C [RIFAMPIN]	< 0.78		> 1		
COc1cccc(CNC(=O)c2c(C)nc3ncc(C)cn23)c1	2.78 (≈ 0.863 µg/mL)	5.84 (≈ 1.81 µg/mL)	1.49 (≈ 0.462 µg/mL)	1.02 (≈ 0.317 µg/mL)	5.84 (≈ 1.81 µg/mL)
